“And” between values parts separate entries of the source, which are not always exact repeats. Identical values can stand only once.
System: CD-1 mice
Assay: Acute toxicity of intraperitoneal bolus doses in CD-1 mice
Format: in vivo
Settings: for tubular dilation: after the 30 day observation period
Procedure: 1.2.8 Animals Female CD-1 mice (Body weight: ˜25 g; Age: 7 week old) were purchased, from Charles River Laboratories (Willmington, Mass., USA). MMTV Neu-mice [FVB/N-TgN(MMTV neu)202MUL; Jackson Laboratory, Bar Harbor, Me.] were bred to produce multiple litters. All mice were housed in microisolator cages (Lab Products, Inc., Maywood, N.Y., USA) containing autoclaved bedding in a controlled specific pathogen-free (SPF) environment (12-h light/12-h dark photoperiod, 22±1° C., 60±10% relative humidity), which is fully accredited by the USDA (United States Department of Agriculture). Adult male Lewis rats (Body weight: ˜160 g) were obtained from the specific pathogen-free (SPF) breeding facilities of Harlan Sprague Dawley (Indianapolis, Id., USA) at 14 weeks of age. All husbandry and experimental contact made with the mice and rats maintained SPF conditions. The rats were kept in microisolater cages (Allentown Caging Equipment Co., Inc., Allentown, N.J., USA) containing autoclaved food, water, and bedding. Animal studies were approved by Parker Hughes Institute Animal Care and Use Committee and all animal care procedures 1.5 conformed to the Guide for the Care and Use of Laboratory Animals (National Research Council, National Academy Press, Washington D.C. 1996, USA).
The toxicity profile of Compound 003 in CD-1 mice and Lewis rats was examined, using standard procedures as previously reported for other experimental drugs (Uckun, et al., 2003, Arzneimittelforschun. 53:357; Uckun, et al., 2002, Clin Cancer Res. 8: 1224; Uckun, et al., 2002, Antimicrob Agents Chemother. 46:3428). In brief, mice and rats were treated with intraperitoneal injections of vehicle or Compound 003 at multiple dose levels. Compound 003 was administered as a 0.2 mL (for mice) or 0.5 mL (for rats) bolus injection containing 10% DMSO as a vehicle. Animals were allowed free access to autoclaved standard pellet food and tap water throughout the experiments and monitored daily for morbidity and mortality. Animals were electively sacrificed on day 7 or day 30 to determine the toxicity of Compound 003 by examining their blood chemistry profiles, blood counts, and evaluating multiple organs for the presence of toxic lesions. Blood was collected by intracardiac puncture following anesthesia with ketamine:xylazine and immediately heparinized. The blood chemistry profiles were examined using a Synchron CX5CE Chemical Analyzer (Beckman Instruments, Inc., Fullerton, Calif., USA). Blood counts (red blood cells [RBC], white blood cells [WBC] and platelets [Plt]) were determined using a HESKA Vet ABC-Diff Hematology Analyzer (HESKA Corporation, Fort Collins, Colo., USA). Absolute neutrophil counts (ANC) and absolute lymphocyte counts (ALC) were calculated from WBC values after determining the percentages of neutrophils and lymphocytes by a manual differential count. At the time of necropsy, […] from mice (bone, bone marrow, brain, cecum, heart, kidney, large intestine, liver, lung, lymph node, ovary, pancreas, skeletal muscle, skin, small intestine, spleen, stomach, thymus, thyroid gland, urinary bladder, and uterus, as available) and 21 different tissues from rats (bone, bone marrow, brain, coagulating gland, epididymis, heart, large intestine, small intestine, kidney, liver, lung, pancreas, peripheral nerve/spinal nerve, skeletal muscle, skin, spinal cord, spleen, stomach, testes, thymus, urinary bladder) were collected within 15 minutes after sacrifice, gross pathological findings were documented, organs were preserved in 10% neutral phosphate buffered formalin, and processed for histopathological examination. For histopathologic studies, formalin fixed tissues were dehydrated and embedded in paraffin by routine methods. Glass slides with affixed 4-5 micron tissue sections were prepared and stained with Hemotoxylin and Eosin (H&E). […]

[1] = 10 mg/kg single i.p. bolus, Day 7
[2] = 10 mg/kg single i.p. bolus, Day 30
[3] = 20 mg/kg single i.p. bolus, Day 7
[4] = 20 mg/kg single i.p. bolus, Day 30
[5] = 40 mg/kg single i.p. bolus, Day 7
[6] = 40 mg/kg single i.p. bolus, Day 30
[7] = 80 mg/kg single i.p. bolus, Day 7
[8] = 80 mg/kg single i.p. bolus, Day 30

COC(=O)C(C)NP(=O)(OCC1OC(n2cc(C)c(=O)[nH]c2=O)CC1N=[N+]=[N-])Oc1ccc(OC)cc1 (centres unmarked) [Compound 003, 3′-azidothymidine 5′-[p-methoxyphenylmethoxyalaninyl phosphate]]
ALC [1]: 5.5 ± 0.0 ×10^9/L
ANC [1]: 1.2 ± 0.0 ×10^9/L
AST [1]: 137.1 ± 23.1 IU/L
Albumin [1]: 1.5 ± 0.0 g/dL
Ammonia [1]: 174.8 ± 11.8 µmol/L
Amylase [1]: 1728.6 ± 248.5 U/L
BUN [1]: 24.1 ± 0.8 mg/dL
Calcium [1]: 8.9 ± 0.2 mg/dL
Creatinine [1]: 0.3 ± 0.0 mg/dL
Mean Weight Change (g ± SEM) [1]: 0.16 ± 0.15 g
Mean Weight Change [%] [1]: (0.6 ± 0.6%)
Morbidity [1]: 0/20
Phosphate [1]: 6.2 ± 0.2 mg/dL
RBC [1]: 9.4 ± 0.2 ×10^12/L
Total Bilirubin [1]: 0.7 ± 0.1 mg/dL
Total Protein [1]: 4.1 ± 0.1 g/dL
Toxic Organ Lesions [1]: 0/20
Triglycerides [1]: 158.3 ± 18.2 mg/dL
WBC [1]: 7.3 ± 0.6 ×10^9/L
Weight Gain [1]: 13/20
Weight Loss [1]: 7/20
ALC [2]: 7.5 ×10^9/L and 7.5 ± 0.0 ×10^9/L
ANC [2]: 2.1 ± 0.0 ×10^9/L
AST [2]: 114.0 ± 12.4 IU/L
Albumin [2]: 1.2 ± 0.0 g/dL
Ammonia [2]: 205.3 ± 15.6 µmol/L
Amylase [2]: 1993.5 ± 415.9 U/L
BUN [2]: 21.6 ± 0.7 mg/dL
Calcium [2]: 8.2 ± 0.2 mg/dL
Creatinine [2]: 0.3 ± 0.0 mg/dL
Mean Weight Change (g ± SEM) [2]: 2.61 ± 0.45 g
Mean Weight Change [%] [2]: (10.4 ± 1.8%)
Morbidity [2]: 0/20
Phosphate [2]: 5.7 ± 0.2 mg/dL
RBC [2]: 9.1 ± 0.1 ×10^12/L
Total Bilirubin [2]: 0.4 ± 0.0 mg/dL
Total Protein [2]: 4.0 ± 0.1 g/dL
Toxic Organ Lesions [2]: 0/20
Triglycerides [2]: 88.1 ± 10.3 mg/dL
WBC [2]: 9.9 ± 1.0 ×10^9/L
Weight Gain [2]: 18/20
Weight Loss [2]: 2/20
ALC [3]: 6.9 ± 0.0 ×10^9/L
ANC [3]: 1.6 ± 0.0 ×10^9/L
AST [3]: 100.0 ± 6.7 IU/L
Albumin [3]: 1.4 ± 0.0 g/dL
Ammonia [3]: 201.9 ± 15.0 µmol/L
Amylase [3]: 1810.3 ± 268.8 U/L
BUN [3]: 23.7 ± 0.7 mg/dL
Calcium [3]: 8.9 ± 0.1 mg/dL
Creatinine [3]: 0.4 ± 0.0 mg/dL
Mean Weight Change (g ± SEM) [3]: -0.04 ± 0.16 g
Mean Weight Change [%] [3]: (−0.1 ± 0.7%)
Morbidity [3]: 0/20
Phosphate [3]: 6.6 ± 0.2 mg/dL
RBC [3]: 9.0 ± 0.3 ×10^12/L
Total Bilirubin [3]: 0.5 ± 0.1 mg/dL
Total Protein [3]: 4.2 ± 0.1 g/dL
Toxic Organ Lesions [3]: 0/20
Triglycerides [3]: 144.3 ± 17.5 mg/dL
WBC [3]: 8.7 ± 0.8 ×10^9/L
Weight Gain [3]: 10/20
Weight Loss [3]: 10/20
ALC [4]: 6.8 ×10^9/L and 6.8 ± 0.0 ×10^9/L
ANC [4]: 2.0 ± 0.0 ×10^9/L
AST [4]: 107.8 ± 13.2 IU/L
Albumin [4]: 1.1 ± 0.0 g/dL
Ammonia [4]: 150.5 ± 10.3 µmol/L
Amylase [4]: 1587.6 ± 261.5 U/L
BUN [4]: 20.4 ± 0.6 mg/dL
Calcium [4]: 8.1 ± 0.1 mg/dL
Creatinine [4]: 0.3 ± 0.0 mg/dL
Mean Weight Change (g ± SEM) [4]: 3.01 ± 0.28 g
Mean Weight Change [%] [4]: (12.4 ± 1.1%)
Morbidity [4]: 0/20
Phosphate [4]: 6.2 ± 0.1 mg/dL
RBC [4]: 9.1 ± 0.2 ×10^12/L
Total Bilirubin [4]: 0.5 ± 0.0 mg/dL
Total Protein [4]: 3.8 ± 0.1 g/dL
Toxic Organ Lesions [4]: 0/20
Triglycerides [4]: 84.6 ± 7.2 mg/dL
WBC [4]: 9.3 ± 0.8 ×10^9/L
Weight Gain [4]: 20/20
Weight Loss [4]: 0/20
tubular dilation (20 mg/kg): 2/20
ALC [5]: 5.5 ± 0.0 ×10^9/L
ANC [5]: 1.7 ± 0.0 ×10^9/L
AST [5]: 134.3 ± 23.2 IU/L
Albumin [5]: 1.5 ± 0.0 g/dL
Ammonia [5]: 366.8 ± 23.7 µmol/L
Amylase [5]: 1597.8 ± 100.0 U/L
BUN [5]: 27.6 ± 0.7 mg/dL
Calcium [5]: 8.8 ± 0.2 mg/dL
Creatinine [5]: 0.5 ± 0.1 mg/dL
Mean Weight Change (g ± SEM) [5]: -0.06 ± 0.21 g
Mean Weight Change [%] [5]: (−0.2 ± 0.9%)
Morbidity [5]: 0/20
Phosphate [5]: 7.0 ± 0.2 mg/dL
RBC [5]: 9.8 ± 0.3 ×10^12/L
Total Bilirubin [5]: 0.7 ± 0.2 mg/dL
Total Protein [5]: 4.5 ± 0.1 g/dL
Toxic Organ Lesions [5]: 0/20
Triglycerides [5]: 134.7 ± 21.6 mg/dL
WBC [5]: 7.4 ± 0.7 ×10^9/L
Weight Gain [5]: 9/20
Weight Loss [5]: 11/20
ALC [6]: 4.7 ×10^9/L and 4.7 ± 0.0 ×10^9/L
ANC [6]: 1.4 ± 0.0 ×10^9/L
AST [6]: 198.5 ± 51.8 IU/L
Albumin [6]: 1.2 ± 0.0 g/dL
Ammonia [6]: 139.2 ± 8.3 µmol/L
Amylase [6]: 2153.7 ± 411.4 U/L
BUN [6]: 20.5 ± 0.8 mg/dL
Calcium [6]: 7.2 ± 0.2 mg/dL
Creatinine [6]: 0.3 ± 0.0 mg/dL
Mean Weight Change (g ± SEM) [6]: 2.34 ± 0.35 g
Mean Weight Change [%] [6]: (9.6 ± 1.4%)
Morbidity [6]: 0/20
Phosphate [6]: 5.9 ± 0.3 mg/dL
RBC [6]: 9.1 ± 0.1 ×10^12/L
Total Bilirubin [6]: 0.5 ± 0.1 mg/dL
Total Protein [6]: 3.9 ± 0.1 g/dL
Toxic Organ Lesions [6]: 0/20
Triglycerides [6]: 74.9 ± 5.0 mg/dL
WBC [6]: 6.2 ± 0.7 ×10^9/L
Weight Gain [6]: 18/20
Weight Loss [6]: 2/20
tubular dilation (40 mg/kg): 1/20
ALC [7]: 6.7 ± 0.0 ×10^9/L
ANC [7]: 2.4 ± 0.0 ×10^9/L
AST [7]: 111.4 ± 7.8 IU/L
Albumin [7]: 1.5 ± 0.1 g/dL
Ammonia [7]: 293.1 ± 23.4 µmol/L
Amylase [7]: 1424.6 ± 37.1 U/L
BUN [7]: 27.7 ± 0.9 mg/dL
Calcium [7]: 9.1 ± 0.2 mg/dL
Creatinine [7]: 0.3 ± 0.0 mg/dL
Mean Weight Change (g ± SEM) [7]: 0.09 ± 0.20 g
Mean Weight Change [%] [7]: (0.4 ± 0.8%)
Morbidity [7]: 0/20
Phosphate [7]: 6.0 ± 0.2 mg/dL
RBC [7]: 9.3 ± 0.2 ×10^12/L
Total Bilirubin [7]: 0.8 ± 0.2 mg/dL
Total Protein [7]: 4.9 ± 0.2 g/dL
Toxic Organ Lesions [7]: 0/20
Triglycerides [7]: 197.6 ± 34.7 mg/dL
WBC [7]: 9.5 ± 0.9 ×10^9/L
Weight Gain [7]: 11/20
Weight Loss [7]: 9/20
ALC [8]: 3.4 ×10^9/L and 3.4 ± 0.0 ×10^9/L
ANC [8]: 1.6 ± 0.0 ×10^9/L
AST [8]: 154.2 ± 33.8 IU/L
Albumin [8]: 1.2 ± 0.0 g/dL
Ammonia [8]: 178.4 ± 17.9 µmol/L
Amylase [8]: 1397.1 ± 339.3 U/L
BUN [8]: 26.1 ± 1.3 mg/dL
Calcium [8]: 7.7 ± 0.2 mg/dL
Creatinine [8]: 0.3 ± 0.0 mg/dL
Mean Weight Change (g ± SEM) [8]: 3.24 ± 0.29 g
Mean Weight Change [%] [8]: (13.4 ± 1.2%)
Morbidity [8]: 0/20
Phosphate [8]: 5.8 ± 0.4 mg/dL
RBC [8]: 9.4 ± 0.2 ×10^12/L
Total Bilirubin [8]: 0.6 ± 0.0 mg/dL
Total Protein [8]: 4.1 ± 0.1 g/dL
Toxic Organ Lesions [8]: 0/20
Triglycerides [8]: 85.6 ± 9.5 mg/dL
WBC [8]: 5.3 ± 0.5 ×10^9/L
Weight Gain [8]: 20/20
Weight Loss [8]: 0/20
tubular dilation (80 mg/kg): 1/20
Kidney tubular degeneration, share of drug-treated mice (40 and 80 mg/kg, following the 7 day period): ~50%
leukopenia / lymphocyte depletion (day 30, 10-80 mg/kg): causes leukopenia in a dose-dependent fashion due to a selective depletion of lymphocytes
overall toxicity (histologic evaluation) (doses up to and including 80mg/kg): nontoxic
hematologic toxicity, renal toxicity, hepatotoxicity (highest dose level of 80 mg/kg/day): no evidence of hematologic toxicity renal toxicity, or hepatotoxicity
LD10 (single i.p. bolus, not reached at highest dose): > 80 mg/kg/day

From US20060046972A1, “Cytotoxic nucleoside analog compound 003 for treating cancer” (Parker Hughes Institute, priority 2004, published 2006)
